Assay results published in patent publication US20090196864A1 (priority 2005, published 2009).
Like-named read-outs stand apart in the source and are kept apart here. Where a SMILES comes first, the peptide text is derived from it. The star is where a group is joined. Cbz = O=C(OCc1ccccc1)*; CH2F = FC*

Tests used:
[1] = tested on: S5 cells; type: cell-based, Trichoplusia ni
[2] = tested on: S5 cells; settings: Zhang et al. 2005, cited from earlier work; for Effect of osmotic protectant on blebbing and swelling of toxin-exposed cells: 30 mM protectant
[3] = tested on: S5 cells; settings: Zhang et al. 2005, cited from earlier work; for Effect of chelator on toxin-induced death: S5 cells pre-treated with chelator, then Cry1Ab toxin
[4] = tested on: S5 cells; type: cell-based, Trichoplusia ni; remark: listed apart in the source
[5] = tested on: S5 cells; type: cell-based, Trichoplusia ni; remark: listed apart in the source
[6] = tested on: H5 cells; settings: cultured H5 cells without receptor; Zhang et al. 2005; cited from earlier work
[7] = tested on: S5 cells; settings: either stage of cytotoxicity; shown previously; cited from earlier work
[8] = tested on: H5 cells; type: cell-based, Trichoplusia ni

## C=C1[C@@H](C)[C@H]2[C@H](Cc3ccccc3)NC(=O)[C@]23[C@H](OC(C)=O)/C=C/[C@@](C)(O)C(=O)[C@@H](C)C/C=C/[C@H]3[C@@H]1O [Cytochalasin D]
[1]
  Cell death: + (key: + = 80 ± 5% cell death; − = no cell death)

## OC[C@H]1O[C@@](CO)(O[C@H]2O[C@H](CO)[C@@H](O)[C@H](O)[C@H]2O)[C@@H](O)[C@@H]1O [Sucrose, sucrose]
[2]
  Effect of osmotic protectant on blebbing and swelling of toxin-exposed cells: partially prevented cell swelling

## C[C@H]1O[C@@H](n2cnc3c(N)ncnc32)C[C@@H]1OP(=O)(O)OP(=O)(O)O [ddADP, 2′,5′-dideoxy-3′-ADP]
[1]
  Reduction of number of cells undergoing cell death: 50%

## OC[C@H]1O[C@H](OC[C@H]2O[C@H](O[C@]3(CO)O[C@H](CO)[C@@H](O)[C@@H]3O)[C@H](O)[C@@H](O)[C@@H]2O)[C@H](O)[C@@H](O)[C@H]1O [raffinose]
[2]
  Effect of osmotic protectant on blebbing and swelling of toxin-exposed cells: arrested in the blebbing stage and did not swell
[3]; raffinose-treated cells
  Fate of protectant-treated S5 cells after Cry1Ab exposure: eventually died

## COC(=O)Nc1nc2ccc(C(=O)c3cccs3)cc2[nH]1 [Nocodazole]
[1]; S5 cells treated with inhibitor, switched to inhibitor-free buffer before Cry1Ab toxin treatment, percent of dead cells by Trypan blue staining
  Cell death: + (+ = 80 ± 5% cell death)

## CC(C)Cn1c(=O)n(C)c(=O)c2[nH]cnc21 [IBMX]
[4]
  Level of cAMP: did not cause any elevation

## CO/C1=C\C(C)=C\[C@@H](C)[C@@H](O)[C@@H](C)C/C(C)=C/C=C/[C@H](OC)[C@@H]([C@@H](C)[C@@H](O)[C@H](C)[C@@]2(O)C[C@@H](O)[C@H](C)[C@@H](C(C)C)O2)OC1=O [Bafilomycin A]
[1]
  Cell death: + (key: + = 80 ± 5% cell death; − = no cell death)

## Nc1ncnc2c1nc(Sc1ccc(Cl)cc1)n2[C@@H]1O[C@@H]2COP(=O)(O)O[C@H]2[C@H]1O [pCPT-cAMP]
[1]
  Cell death with Cry1Ab after pre-treatment: ~100%
  Cell death without Cry1Ab treatment: Neither FSK nor pCPT-cAMP alone was sufficient to bring about cell death

## O=C(O)CN(CCN(CC(=O)O)CC(=O)O)CC(=O)O [EDTA]
[4]
  Effect on Cry1Ab-induced cAMP levels: virtually precluded any increase in cAMP levels
  Effect on FSK induction of cAMP: precluded FSK induction of cAMP
[3]
  Effect of chelator on toxin-induced death: completely abolished toxin-induced death
[1]
  Cell death: − (key: + = 80 ± 5% cell death; − = no cell death)
  Effect on Cry1Ab-induced toxicity and cell death: prevented completely

## Cl.NCCc1ccc(S(=O)(=O)F)cc1 [Pefabloc]
[1]
  Cell death: + (key: + = 80 ± 5% cell death; − = no cell death)
  Effect on Cry1Ab-induced toxicity and cell death: had no effect

## COC(=O)C[C@H](NC(=O)[C@H](C)NC(=O)[C@@H](NC(=O)OCc1ccccc1)C(C)C)C(=O)CF [Z-VAD-fmk] (Cbz-Val-Ala-Asp(OMe)-CH2F)
[1]
  Cell death: + (key: + = 80 ± 5% cell death; − = no cell death)
  Effect on Cry1Ab-induced toxicity and cell death: did not suppress

## O=C(Nc1cccc(C(=O)Nc2ccc(S(=O)(=O)O)c3cc(S(=O)(=O)O)cc(S(=O)(=O)O)c23)c1)Nc1cccc(C(=O)Nc2ccc(S(=O)(=O)O)c3cc(S(=O)(=O)O)cc(S(=O)(=O)O)c23)c1 [NF023]
[1]
  Effect on Cry1Ab toxicity: did not have any effect

## Cry1Ab toxin
[2]; S5 cells
  Time to cell swelling and lysis: ≤ 40 min
  Time to membrane blebbing after toxin exposure: ≤ 20 min
[5]
  Externalization of phosphatidylserine or DNA fragmentation: no externalization of phosphatidylserine or DNA fragmentation was observed
[6]
  Effect of toxin on cells: not affected
[7]
  Internalization of toxin: not internalized
[8]
  cAMP levels: did not change
[4]
  cAMP production: increased in a time-dependent manner

## O=C(Nc1cc(C(=O)Nc2ccc(S(=O)(=O)O)cc2S(=O)(=O)O)cc(C(=O)Nc2ccc(S(=O)(=O)O)cc2S(=O)(=O)O)c1)Nc1cc(C(=O)Nc2ccc(S(=O)(=O)O)cc2S(=O)(=O)O)cc(C(=O)Nc2ccc(S(=O)(=O)O)cc2S(=O)(=O)O)c1 [NF449]
[1]
  Decrease of relative toxicity (cell death) mediated by Cry1Ab: 50%

## Cc1ccc(S(=O)(=O)N[C@@H](Cc2ccccc2)C(=O)CCl)cc1 [TPCK]
[1]
  Cell death: + (key: + = 80 ± 5% cell death; − = no cell death)
  Effect on Cry1Ab-induced toxicity and cell death: had no effect

## O=C(O)CN(CCOCCOCCN(CC(=O)O)CC(=O)O)CC(=O)O [EGTA]
[3]
  Effect of chelator on toxin-induced death: fully susceptible
[1]
  Cell death: + (key: + = 80 ± 5% cell death; − = no cell death)
